Assay results reported in US7317002B2, “Site-specific preparation of polyethylene glycol-GRF conjugates” (Applied Research Systems ARS Holding N.V., priority 1997, dated 2008).
No end group written: not given here.

Legend:
GH serum levels = test: In vivo assay: serum GH levels after i.v. injection in male rats; design: species or system Sprague-Dawley rats; conditions: for GH serum levels induced, compared with hGRF1-29: 400 μg i.v., rats, DMSO preparations, FIG. 11A
Protocol: (§1) SPF adult male Sprague-Dawley rats, 200-250 g b.w, supplied by Charles River, are used after an acclimatisation period of at least 7 days.
(§2) The animal was injected i.v. with hGRF(1-29) (400 μg/rat). A few minutes before blood collection, the animal was anaesthetized (ketamine-xylazine). […] The sample was divided into two aliquots: 1 ml was collected as such and serum was obtained after an incubation period of about 3 hours at 37° C. and subsequent centrifugation; the remaining 1 ml was collected into a vial containing 50 μl of a 4 mg/ml heparin solution, immediately stored on ice and plasma was obtained after centrifugation at 4° C.
(§3) Blood samples were collected at different time points from the injection of the test compound using different animals. In each experimental session a total of three rats for each time point was used.
(§4) Plasma and serum samples were immediately frozen and stored at −20° C.
(§5) GH serum levels were measured by a commercial RIA kit; hGRF plasma levels were measured by a commercial RIA kit for hGRF(1-44).

[1] = Solubility in aqueous buffer; format: physicochemical; conditions: water solution at neutral or slightly alkaline pH
[2] = target: T1, human growth hormone releasing factor receptor (hGRF-R) (Homo sapiens, UniProt Q02643); test: CHO-hGRFR-LUC in vitro assay (luciferase reporter gene assay); format: cell-based; conditions: DMSO and nicotinamide preparations; FIGS. 5-7
T1 construct: expressed in transfected cells; host or cells: CHO-DUKX (clone CHO-hGRFR-LUC 1-11-20)
T1 sequence (Q02643 23-423): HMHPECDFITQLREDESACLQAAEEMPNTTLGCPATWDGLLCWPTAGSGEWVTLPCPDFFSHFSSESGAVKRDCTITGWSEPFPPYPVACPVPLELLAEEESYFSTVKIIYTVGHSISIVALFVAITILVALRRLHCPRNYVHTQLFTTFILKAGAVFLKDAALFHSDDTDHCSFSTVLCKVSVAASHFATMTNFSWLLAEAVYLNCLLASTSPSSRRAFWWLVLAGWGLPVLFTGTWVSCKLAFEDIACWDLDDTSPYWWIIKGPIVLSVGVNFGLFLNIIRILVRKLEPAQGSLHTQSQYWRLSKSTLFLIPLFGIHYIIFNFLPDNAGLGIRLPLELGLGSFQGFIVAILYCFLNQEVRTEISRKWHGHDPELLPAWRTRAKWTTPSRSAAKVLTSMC
Text: CHO-hGRFR-LUC in Vitro Assay
CHO-hGRFR-LUC (clone 1-11-20) is a cloned cell line that had been obtained by cotransfection of the pcDNA3-hGRF-R and pTF5-53 LUC vectors into CHO-DUKX cell line.
The plasmid pcDNA3-hGRF-R was constructed by inserting the human growth hormone releasing factor receptor (hGRF-R) cDNA into pcDNA3 expression vector. The Bluescript plasmid containing hGRF-R cDNA was kindly provided by Dr. B. Gaylinn (University of Virginia) the pcDNA3 mammalian expression vector was obtained from Invitrogen. The hGRF-R coding sequence was driven by the human cytomegalovirus (CMV) promoter.
The plasmid pTF5-53LUC was constructed by inserting the c-fos cAMP response element along with its endogenous promoter upstream of the luciferase coding sequence in plasmid poLuc. The cAMP response element and the c-fos promoter were obtained from the plasmid pTF5-53 (described in Fish et al, 1989). The promoterless reporter gene vector (poLuc) with multiple cloning sites upstream of the luciferase coding sequence was obtained from Dr. Brasier (University of Texas, Galveston).
These CHO-DUKX cells obtained by the above co-transfection were routinely grown in MEM alpha medium containing ribonucleosides and deoxyribonucleosides and supplemented with 10% fetal calf serum plus 600 μg/ml geneticin G418 sulfate.
The cells were seeded (40,000 cells/well) in white 96-well plates (Dynatech) and incubated for 16-18 hrs in 200 μl growth medium before the assay.
The next day, the medium was removed and replaced with a medium containing different concentrations of hGRF(1-29) in-house reference standard (Bachem) or different hGRF-PEG conjugates before incubating the plates at 37° C., 5% CO2 for two hours. At the end of incubation, CHO-hGRFR-LUC cells were washed twice with 200 μl of PBS (Sigma) and then lysed by adding 50 μl of a cell culture lyses reagent (Promega) to each well. After a further 15-minute incubation at room temperature, the plates were read in a luminometer (Dynatech) after introducing 150 μl of a luciferase assay reagent (Promega).
As an alternative method, CHO-hGRFR-LUC cells, seeded at 50,000 cells/well, at the end of incubation with different hGRF-PEG conjugates, were washed with PBS, as above discussed. To each well 100 μl PBS containing calcium and magnesium ions was added, prior to addition of 100 μl of Luclite (Packard). After 10 minutes incubation at room temperature, plates were read in luminometer (Lumicount-Packard).
Results were expressed as relative light unit (RLU).

[3] = In vivo assay: plasma hGRF levels after i.v. injection in male rats; design: species or system Sprague-Dawley rats
Protocol: as §1, §2, §3, §4, §5

[4] = cited from earlier work
rat pituitary cell = test: In vitro rat pituitary cell bioassay (GH release); format: cell-based; conditions: two DMSO preparations; FIGS. 8 and 9
Protocol: In vitro rat pituitary cell bioassay for hGRF(1-29)
The animals (SPF male Sprague-Dawley rats 200 g, b.w.) were sacrificed by CO2 inhalation and the pituitaries removed. The tissue was finely minced and put into a bottle with the enzyme solution for tissue digestion. The bottle was placed in an incubator at 37° C. for 1 hour.
The digested tissue was recovered and the cells washed twice, counted and adjusted to a concentration of 5×10^5/ml. The cells were plated out in a 48-well plate (200 μl/well) and the plate placed in an incubator for 72 hrs.
After 72 hrs the cells were incubated with different concentrations of hGRF for 4 hours. At the end of the incubation period the supernatants were collected and stored at −80° C.
The GH content in each sample was assayed by a commercial rat GH radioimmunoassay kit.

| Compound | biological effect (activity) in the CHO-hGRFR-LUC in vitro assay [2] | GH serum levels induced, compared with hGRF1-29 (GH serum levels) | also measured |
| --- | --- | --- | --- |
| CC[C@H](C)[C@H](NC(=O)[C@H](C)NC(=O)[C@H](CC(=O)O)NC(=O)[C@H](C)NC(=O)[C@@H](N)Cc1ccc(O)cc1)C(=O)N[C@@H](Cc1ccccc1)C(=O)N[C@H](C(=O)N[C@@H](CC(N)=O)C(=O)N[C@@H](CO)C(=O)N[C@@H](Cc1ccc(O)cc1)C(=O)N[C@@H](CCCNC(=N)N)C(=O)N[C@@H](CCCCN)C(=O)N[C@H](C(=O)N[C@@H](CC(C)C)C(=O)NCC(=O)N[C@@H](CCC(N)=O)C(=O)N[C@@H](CC(C)C)C(=O)N[C@@H](CO)C(=O)N[C@@H](C)C(=O)N[C@@H](CCCNC(=N)N)C(=O)N[C@@H](CCCCN)C(=O)N[C@@H](CC(C)C)C(=O)N[C@@H](CC(C)C)C(=O)N[C@@H](CCC(N)=O)C(=O)N[C@@H](CC(=O)O)C(=O)N[C@H](C(=O)N[C@@H](CCSC)C(=O)N[C@@H](CO)C(=O)N[C@@H](CCCNC(=N)N)C(N)=O)[C@@H](C)CC)C(C)C)[C@@H](C)O [hGRF, hGRF(1-29)—NH2, reference compound] | No difference |  | time at which serum GH returned to basal levels (GH serum levels; 400 μg/rat i.v., male rats): 60 min; time of serum GH peak after i.v. injection (GH serum levels; 400 μg/rat i.v., male rats): 10 min; solubility in neutral/alkaline buffer solution [1]: low solubility; plasma hGRF concentrations up to 60 min ([3]; 400 μg/rat i.v., male rats, FIG. 10): maintained a sustained level; Tmax ([3]; male, Sprague-Dawley, rat, in vivo, iv, 400 ug/animal): 10 min |
| GRF: peptide secreted by the hypothalamus which promotes the release of growth hormone; exists as 44-, 40-, or 37-amino acid peptide |  |  | biological half-life [4]: 12 to 30 minutes |
| N^α-(PEG5,000—CH2—CO—Nle—CO)[Lys(MPEG5,000—CH2—CO—Nle—CO)^12,21-hGRF(1-29)—NH2] [GRF-3PEG] |  | lower activity | GH release from rat pituitary cell in vitro (rank of activity) (rat pituitary cell): then GRF-3PEG |
| [Lys(MPEG5,000—CH2—CO—Nle—CO)^12,21-hGRF(1-29)—NH2] [GRF-2PEG] |  | comparable to those obtained with hGRF1-29 |  |
| [Lys(MPEG5,000—CH2—CO—Nle—CO)^12-hGRF(1-29)—NH2] [GRF-1PEG 2nd peak] | more active than the GRF-2PEG and GRF-3PEG | comparable to those obtained with hGRF1-29 |  |
| [Lys(MPEG5,000—CH2—CO—Nle—CO)^21-hGRF(1-29)—NH2] [GRF-1PEG 1st peak] | more active than the GRF-2PEG and GRF-3PEG | comparable to those obtained with hGRF1-29 | GH release from rat pituitary cell in vitro (rank of activity) (rat pituitary cell): the most active compound |
| hGRF(3-29) (DAIFTNSYRKVLGQLSARKLLQDIMSR; ends and bridges not checked; UniProt P01286 34-60, looked up, fragment) [Human GRF3-29, two preparations, supplied by Bachem and by ISL, reference compound] | did not possess a significant in vitro activity |  |  |
